Target: T1, hASBT (Homo sapiens, UniProt Q12908)
T1 sequence (Q12908 1-348): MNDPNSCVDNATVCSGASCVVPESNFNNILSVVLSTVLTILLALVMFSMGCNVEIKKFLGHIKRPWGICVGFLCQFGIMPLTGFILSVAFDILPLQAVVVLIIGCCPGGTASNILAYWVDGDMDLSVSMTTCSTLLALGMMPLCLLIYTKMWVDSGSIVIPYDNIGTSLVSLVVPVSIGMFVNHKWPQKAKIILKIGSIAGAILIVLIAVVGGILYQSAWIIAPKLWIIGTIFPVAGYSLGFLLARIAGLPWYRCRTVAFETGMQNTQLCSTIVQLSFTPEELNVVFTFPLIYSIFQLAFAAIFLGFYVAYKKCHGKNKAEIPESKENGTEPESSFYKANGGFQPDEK
Experiment: in vitro
Settings: MDCK

## C[C@H](CCC(=O)NCCS(=O)(=O)O)[C@H]1CC[C@H]2[C@@H]3[C@H](O)C[C@@H]4C[C@H](O)CC[C@]4(C)[C@H]3C[C@H](O)[C@]12C [TCA, Taurocholate]
  Papp: 0.089 to 0.3 ×10⁻⁶ cm/s

— PMC2882941 (Pharmaceutical research, 2009)
